The values that follow come from patent US8119630B2 (Arrow Therapeutics Limited, priority 2002, dated 2012).

Series [1] relates to Hep-2 cells. Kind of series: Toxicity studies (XTT), Hep-2 cells. Particulars: Table 2, Examples 75 to 82 and 125 to 184, 6d, in µM. Also on record: TC50 (6d): unit not given beside the values. It counts as cell-based. On the procedure: (§1) The inner 60 wells of 96 well tissue culture plates were seeded with Hep-2 cells at 4×10^4 cells/well for compound activity and toxicity studies in 100 μl of medium and incubated at 37° C. overnight or until nearing confluency.
Cells were infected with 25 μl RSV previously titrated to give 80% cell kill. To each well 25 μM of test compound were added. The final DMSO concentration was 0.5%. […] Some 0.25 μl/ml PMS were added to stock […] solution, final conc. 25 μM PMS. Then 25 μl warmed XTT/PMS solution were added to each well and incubated for 1 hour at 37° C.

Series [2] concerns RSV. Description: XTT assay, RSV-infected Hep-2 cells. It counts as cell-based, Respiratory Syncytial Virus (RSV). Particulars: human respiratory syncytial virus, 144 h; Table 2, Examples 75 to 82 and 125 to 184; Hep-2 cells infected with RSV, 6 days at 37° C. On the procedure:
Examples 75 to 82 and 125 to 184 were tested according to the protocol described below.
as §1
Cells were infected with 25 μl RSV previously titrated to give 80% cell kill. To each well 25 μM of test compound were added. The final DMSO concentration was 0.5%. Some 200 μl of sterile distilled water were added to the outer wells of the plate and incubated at 37° C. for 6 days. Some 0.25 μl/ml PMS were added to stock […] solution, final conc. 25 μM PMS. Then 25 μl warmed XTT/PMS solution were added to each well and incubated for 1 hour at 37° C.
Maximum OD450nm reading (uninfected, untreated control cells) corresponded to 100% inhibition. Minimum OD450nm readings (infected control cells) corresponded to 0% inhibition. Log 10 concentration was plotted against OD450nm and IC50 values were calculated from either reading 50% value from graph or using regression analysis.

The subject of series [3] is RSV. Kind of series: XTT assay, RSV-infected Vero cells. It counts as cell-based, Respiratory Syncytial Virus (RSV). Particulars: Vero cells infected with RSV, m.o.i.≈0.2, 6 days at 33° C. In a few lines: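 Vero cells infected with RSV at m.o.i.≈0.2 in presence of serially ½-log diluted compound, incubated 6 days at 33 °C. Viability read by XTT/PMS (5 h, 37 °C) at OD450; uninfected untreated cells = 100%, infected controls = 0% inhibition. IC50 from graph or regression; parallel uninfected plates for toxicity.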

The test system of series [4] is Vero cells. Description: Simultaneous toxicity investigation (XTT), Vero cells. It counts as cell-based. Set-up: unit not given here. Particulars: for TC50 (2d): Table 2, Examples 83 to 124, 2d; for TC50 (6d): Table 2, Examples 83 to 124, 6d. On the procedure: The inner 60 wells of 96 well tissue culture plates were seeded with Vero cells at 3×10^4 cells/well (1×10^4 cells/well for toxicity studies) in 100 or 150 μl of medium and incubated at 37° C. overnight or until nearing confluency. For primary screen, 25 μl compounds were added directly to 100 μl medium in single wells to duplicate plates. A third plate was prepared for simultaneous toxicity investigation.
For follow-up investigation, 70 μl of compound in duplicate wells were added directly to culture medium at 3.2× final concentration and ½ log serially diluted down columns of plate. A duplicate plate was prepared for simultaneous toxicity investigation.
Cells were infected with 25 μl RSV to give m.o.i.≈0.2. […] Some 0.25 μl/ml PMS were added to stock XTT solution, final conc. […]. Then 25 μl warmed XTT/PMS solution were added to each well and incubated for 5 hours at 37° C. Plates were shaken (DynaTech Vari-Shaker) vigorously for 10 mins and allowed to cool for 15 mins before sealing. Absorbance at 450 nm was measured and data analysed using Microsoft Excel software.

[5] abbreviates: human respiratory syncytial virus, Vero, 144 h, read-out: XTT IC50 (uM), Table 2, Examples 83 to 124.
Setting [6] is: Table 2, Examples 83 to 124, read-out: XTT IC50.

On to `CS(=O)(=O)c1ccc(C(=O)NC2N=C(c3ccccc3)c3ccccc3NC2=O)cc1` (stereo not drawn) [Example 133, 4-Methanesulfonyl-N-(2-oxo-5-phenyl-2,3-dihydro-1H-benzo[e][1,4]diazepin-3-yl)-benzamide], for which, in series [1], the “TC50 (6d)” value stood at 77.2. The compound also returned an IC50 in series [2] of 6.2 µM.

As to `COc1cc(S(C)(=O)=O)ccc1C(=O)NC1N=C(c2ccccc2)c2ccccc2NC1=O` (stereo not drawn) [Example 75a, 4-Methanesulfonyl-2-methoxy-N-(2-oxo-5-phenyl-2,3-dihydro-1H-benzo[e][1,4]diazepin-3-yl)-benzamide], in series [2], the IC50 worked out at 2.4 µM.

With `COc1cc(C(=O)NC2N=C(c3ccccc3)c3ccccc3NC2=O)ccc1[N+](=O)[O-]` (stereo not drawn) [Example 95, 3-Methoxy-4-nitro-N-(2-oxo-5-phenyl-2,3-dihydro-1H-benzo[e][1,4]diazepin-3-yl)-benzamide], the IC50 in series [3] (setting [5]) is 1.5 µM. Further, in series [4], the “TC50 (2d)” value turned out to be 100 and the “TC50 (6d)” value is above 100.

For `O=C(Nc1ccc(C(F)(F)F)cc1)NC1N=C(c2ccccc2)c2ccccc2NC1=O` (stereo not drawn) [Example 87, 1-(2-Oxo-5-phenyl-2,3-dihydro-1H-benzo[e][1,4]diazepin-3-yl)-3-(4-trifluoromethyl-phenyl)-urea], the IC50 in series [3] (setting [5]) came to 4 µM. Also, in series [4], the “TC50 (2d)” value came out at 50 and the “TC50 (6d)” value stood at 50.

For the compound `COc1ccccc1C(=O)NC1N=C(c2cccc(Cl)c2)c2ccccc2NC1=O` (stereo not drawn) [Example 99, N-[5-(3-Chloro-phenyl)-2-oxo-2,3-dihydro-1H-benzo[e][1,4]diazepin-3-yl]-2-methoxy-benzamide], the IC50 in series [3] (setting [5]) was found to be 1 µM. Further, in series [4], the “TC50 (2d)” value was found to be 100 and the “TC50 (6d)” value is on record as above 100.

Turning to “N-[5-(3-Chloro-phenyl)-2-oxo-5-phenyl-2,3-dihydro-1H-benzo[e][1,4]diazepin-3-yl]-2-nitro-benzamide [Example 101]”, the IC50 in series [3] (setting [6]) amounted to 2.5 µM. Besides, in series [4], the “TC50 (2d)” value came to 100 and the “TC50 (6d)” value came to 100.

On to `COc1cccc(CCC(=O)NC2N=C(c3ccccc3)c3ccccc3NC2=O)c1` (stereo not drawn) [Example 97, 3-(3-Methoxy-phenyl)-N-(2-oxo-5-phenyl-2,3-dihydro-1H-benzo[e][1,4]diazepin-3-yl)-propionamide], for which the IC50 in series [3] (setting [5]) turned out to be 5 µM. In series [4], the “TC50 (2d)” value is above 100 and the “TC50 (6d)” value is given as above 100.

For `CSc1ccccc1NC(=O)NC1N=C(c2ccccc2)c2ccccc2NC1=O` (stereo not drawn) [Example 123, 1-(2-Methylsulfanyl-phenyl)-3-(2-oxo-5-phenyl-2,3-dihydro-1H-benzo[e][1,4]diazepin-3-yl)-urea], the IC50 in series [3] (setting [5]) was 2 µM. Moreover, in series [4], the “TC50 (2d)” value is recorded as above 100 and the “TC50 (6d)” value is given as 100.

In the case of `CN(C)c1ccccc1C(=O)NC1N=C(c2ccccc2)c2ccccc2NC1=O` (stereo not drawn) [Example 113, 2-Dimethylamino-N-(2-oxo-5-phenyl-2,3-dihydro-1H-benzo[e][1,4]diazepin-3-yl)-benzamide], in series [3] (setting [5]), the IC50 came to 1.5 µM. In addition, in series [4], the “TC50 (2d)” value is above 100 and the “TC50 (6d)” value is recorded as above 100.

Regarding `CCOc1ccccc1C(=O)NC1N=C(c2ccccc2)c2ccccc2NC1=O` (stereo not drawn) [Example 106, 2-Ethoxy-N-(2-oxo-5-phenyl-2,3-dihydro-1H-benzo[e][1,4]diazepin-3-yl)-benzamide], the IC50 in series [3] (setting [5]) was found to be 0.7 µM. For the same compound, in series [4], the “TC50 (2d)” value is above 100 and the “TC50 (6d)” value is above 100.

On to `COc1ccc(C(=O)NC2N=C(c3ccccc3F)c3cc(Cl)ccc3NC2=O)cc1` (stereo not drawn) [Example 83, N-[7-Chloro-5-(2-fluoro-phenyl)-2-oxo-2,3-dihydro-1H-benzo[e][1,4]diazepine-3-yl]-4-methoxy-benzamide], for which the IC50 in series [3] (setting [5]) was found to be 6 µM. For the same compound, in series [4], the “TC50 (2d)” value is above 100 and the “TC50 (6d)” value came out at 32.

On to `COc1ccc(C(=O)NC2N=C(c3ccc(C(F)(F)F)cc3)c3ccccc3NC2=O)cc1` (stereo not drawn) [Example 103, 4-Methoxy-N-[2-oxo-5-(4-trifluoromethyl-phenyl)-2,3-dihydro-1H-benzo[e][1,4]diazepin-3-yl]-benzamide], for which, in series [3] (setting [5]), the IC50 came to 7 µM. Besides, in series [4], the “TC50 (2d)” value is recorded as above 100 and the “TC50 (6d)” value came out at 30.

For `Cc1cccc(CNC(=O)NC2N=C(c3ccccc3)c3ccccc3NC2=O)c1` (stereo not drawn) [Example 86, 1-(3-Methyl-benzyl)-3-(2-oxo-5-phenyl-2,3-dihydro-1H-benzo[e][1,4]diazepin-3-yl)-urea], the IC50 in series [3] (setting [5]) was determined as 3 µM. Besides, in series [4], the “TC50 (2d)” value is reported as above 100 and the “TC50 (6d)” value was found to be 100.

Consider `COc1ccccc1CCC(=O)NC1N=C(c2ccccc2)c2ccccc2NC1=O` (stereo not drawn) [Example 96, 3-(2-Methoxy-phenyl)-N-(2-oxo-5-phenyl-2,3-dihydro-1H-benzo[e][1,4]diazepin-3-yl)propionamide], for which the IC50 in series [3] (setting [5]) stood at 5 µM. Moreover, in series [4], the “TC50 (2d)” value was above 100 and the “TC50 (6d)” value is on record as above 100.

Regarding `COc1ccc(F)cc1C(=O)NC1N=C(c2ccccc2)c2ccccc2NC1=O` (stereo not drawn) [Example 92, 5-Fluoro-2-methoxy-N-(2-oxo-5-phenyl-2,3-dihydro-1H-benzo[e][1,4]diazepin-3-yl)-benzamide], the 50% inhibitory concentration (IC50) in series [3] (setting [5]) is below 0.3 µM. In series [4], the “TC50 (2d)” value is reported as 100 and the “TC50 (6d)” value was found to be 100.

Turning to “1-(2-Chloro-6-methyl-phenyl)-3-(2-oxo-5-phenyl-2,3-dihydro-1H-benzo[e][1,4]diazepin-3-yl)-urea [Example 121]”, the IC50 in series [3] (setting [6]) stood at 4 µM. In series [4], the “TC50 (2d)” value came out at 60 and the “TC50 (6d)” value is 60.

Take `CS(=O)(=O)c1ccc(C(=O)NC2N=C(c3ccccc3)c3ccccc3NC2=O)c(Cl)c1` (stereo not drawn) [Example 112, 2-Chloro-4-methanesulfonyl-N-(2-oxo-5-phenyl-2,3-dihydro-1H-benzo[e][1,4]diazepin-3-yl)-benzamide]: in series [3] (setting [5]), the IC50 amounted to 1.5 µM. In series [4], the “TC50 (2d)” value was above 100 and the “TC50 (6d)” value was above 100.

As to `COc1ccc(Br)c(C(=O)NC2N=C(c3ccccc3)c3ccccc3NC2=O)c1` (stereo not drawn) [Example 108, 2-Bromo-5-methoxy-N-(2-oxo-5-phenyl-2,3-dihydro-1H-benzo[e][1,4]diazepin-3-yl)-benzamide], the IC50 in series [3] (setting [5]) turned out to be 2 µM. In series [4], the “TC50 (2d)” value is listed as above 100 and the “TC50 (6d)” value was above 100.

Turning to “N-[5-(3-Chloro-phenyl)-2-oxo-5-phenyl-2,3-dihydro-1H-benzo[e][1,4]diazepin-3-yl]-4-nitro-benzamide [Example 102]”, the IC50 in series [3] (setting [6]) came out at 7 µM. Besides, in series [4], the “TC50 (2d)” value is given as above 100 and the “TC50 (6d)” value is reported as above 100.

Turning to `O=C(Nc1c(Cl)cccc1Cl)NC1N=C(c2ccccc2)c2ccccc2NC1=O` (stereo not drawn) [Example 124, 1-(2,6-Dichloro-phenyl)-3-(2-oxo-5-phenyl-2,3-dihydro-1H-benzo[e][1,4]diazepin-3-yl)-urea], the IC50 in series [3] (setting [5]) stood at 5 µM. For the same compound, in series [4], the “TC50 (2d)” value was 70 and the “TC50 (6d)” value was found to be 60.

Regarding “N-[5-(3-Chloro-phenyl)-2-oxo-5-phenyl-2,3-dihydro-1H-benzo[e][1,4]diazepin-3-yl]-4-methoxy-benzamide [Example 100]”, the IC50 in series [3] (setting [6]) came out at 4 µM. In series [4], the “TC50 (2d)” value is on record as above 100 and the “TC50 (6d)” value came out at 100.

With `COc1ccc(CCC(=O)NC2N=C(c3ccccc3)c3ccccc3NC2=O)cc1` (stereo not drawn) [Example 98, 3-(4-Methoxy-phenyl)-N-(2-oxo-5-phenyl-2,3-dihydro-1H-benzo[e][1,4]diazepin-3-yl)-propionamide], the IC50 in series [3] (setting [5]) came out at 5 µM. Further, in series [4], the “TC50 (2d)” value is above 100 and the “TC50 (6d)” value is recorded as above 100.
